In test [1] the target is N-terminal active peptide segment (MI-N899) of POLQ with ATPase activity (Homo sapiens (Human), UniProt O75417). Briefly: POLQ enzyme activity inhibition experiment (ATPase, NADH-coupled, OD 340 nm). In kind it is biochemical. The note with it: 100 nM POLQ (N), 100 μM ATP, 300 nM dT50. On the procedure:
The Envision microplate reader from Perkin Elmer Inc was used to measure the reduction of OD value of NADH at 340 nm, thus reflecting the enzyme activity. Experimental method: The POLQ enzyme was diluted to 100 nM with a reaction buffer (20 mM Tris HCl (pH 7.80), 80 mM KCl, 10 mM MgCl2, 1 mM DTT, 0.01% w/v bovine serum albumin, 0.01% v/v Tween-20, and 5% v/v glycerol). The compounds to be tested were diluted to different concentrations in dimethyl sulfoxide (DMSO) using the Echo 650 pipetting system, and transferred to a 384-well plate, 20 μL/well of 100 nM POLQ was added, and the mixture was incubated at room temperature for 15 minutes. A reaction mixture solution was formulated, and the concentration of each component in the reaction mixture solution was: 100 μM ATP, 300 nM […], 300 μM NADH, 6 mM PEP, 10 U/mL lactate dehydrogenase and 20 U/mL pyruvate kinase. 20 μL/well of reaction mixture solution was added to start the enzyme reaction. […] The concentration range was from 10 μM to 0.0005 μM, and the final concentration of DMSO in the system was 0.2% v/v. The 384-well plate was reacted at room temperature for 20 minutes, and then the OD value at 340 nm was read with an Envision microplate reader. The inhibition rate was calculated, and XLfit software was used to perform fitting to obtain IC50 of the compounds. In the experiment, a blank group and a DMSO group were set up, respectively.

For test [2], the system named is DLD-1 parental cells. Briefly: Inhibition of tumour cell proliferation, 7 days, CTG. In kind it is cell-based. The note with it: Homo sapiens, read-out: DLD-1 parental cell IC50. How it is done: (§1) Brief introduction to the experimental principle: The compounds were co-incubated with tumour cells for 7 days, and then a CTG kit from Promega Inc was used to quantify ATP in viable cells, thus reflecting the effect of the compounds on tumour cell proliferation.
(§2) Experimental method: DLD-1 parental cells or DLD-1 BRCA2 (−/−) cells were diluted with RPMI 1640 medium containing 10% FBS, and then added to a 96-well plate (90 μL/well), with the number of cells being 600 cells/well or 1200 cells/well, respectively, and cultured overnight in a 37° C., 5% CO2 incubator. The compounds to be tested were diluted to different concentrations in dimethyl sulfoxide (DMSO), and then added to a 96-well plate. The final concentration of the compounds in the reaction system started from 25 μM, and was subjected to 4-fold gradient dilution. The concentration range of the compounds was from 25 μM to 0.0004 μM, and the final concentration of DMSO was 0.25% v/v. After 7 days of incubation, 50 μL/well CTG was added, and the mixture was incubated at room temperature for 10 minutes. Subsequently, the luminescence (Lum) signal value was read with an Envision microplate reader, and the inhibition rate and half inhibitory concentration (IC50) were calculated.
(§3) The inhibition rate was calculated, and XLfit software was used to perform fitting to obtain IC50 of the compounds.
(§4) In the experiment, a blank well and a DMSO well were set up, respectively.
(§5) Inhibition rate=100*(Lummax−Lumcompound)/(Lummax−Lummin)%, • where Lummax refers to the luminescence signal value of the well containing cells and 0.25% v/v DMSO; Lumcompound refers to the luminescence signal value of the well containing the compound and cells; and Lummin refers to the luminescence signal value of the well containing the medium and 0.25% v/v DMSO.

In test [3] the test system is DLD-1 BRCA2 (−/−) cells. Described as above. The class given is cell-based. The settings on record: Homo sapiens, read-out: DLD-1 BRCA2 (−/−) IC50. How it is done:
as §1, §2, §3, §4, §5

Where [4] appears, read: 168 h, DLD-1 parental cells, 7 days of incubation, CTG.
Where [5] appears, read: 168 h, DLD-1 BRCA2 (−/−) cells, 7 days of incubation, CTG.

Read-outs that look alike come from different tables or passages of the source. Some results are limits rather than exact numbers.

From patent publication US20250122221A1 (NANJING ZAIMING PHARMACEUTICAL CO., LTD., priority 2022, published 2025) come the findings set out here.

N-terminal active peptide segment (MI-N899) of POLQ with ATPase activity, sequence (O75417 1-899 limits assumed): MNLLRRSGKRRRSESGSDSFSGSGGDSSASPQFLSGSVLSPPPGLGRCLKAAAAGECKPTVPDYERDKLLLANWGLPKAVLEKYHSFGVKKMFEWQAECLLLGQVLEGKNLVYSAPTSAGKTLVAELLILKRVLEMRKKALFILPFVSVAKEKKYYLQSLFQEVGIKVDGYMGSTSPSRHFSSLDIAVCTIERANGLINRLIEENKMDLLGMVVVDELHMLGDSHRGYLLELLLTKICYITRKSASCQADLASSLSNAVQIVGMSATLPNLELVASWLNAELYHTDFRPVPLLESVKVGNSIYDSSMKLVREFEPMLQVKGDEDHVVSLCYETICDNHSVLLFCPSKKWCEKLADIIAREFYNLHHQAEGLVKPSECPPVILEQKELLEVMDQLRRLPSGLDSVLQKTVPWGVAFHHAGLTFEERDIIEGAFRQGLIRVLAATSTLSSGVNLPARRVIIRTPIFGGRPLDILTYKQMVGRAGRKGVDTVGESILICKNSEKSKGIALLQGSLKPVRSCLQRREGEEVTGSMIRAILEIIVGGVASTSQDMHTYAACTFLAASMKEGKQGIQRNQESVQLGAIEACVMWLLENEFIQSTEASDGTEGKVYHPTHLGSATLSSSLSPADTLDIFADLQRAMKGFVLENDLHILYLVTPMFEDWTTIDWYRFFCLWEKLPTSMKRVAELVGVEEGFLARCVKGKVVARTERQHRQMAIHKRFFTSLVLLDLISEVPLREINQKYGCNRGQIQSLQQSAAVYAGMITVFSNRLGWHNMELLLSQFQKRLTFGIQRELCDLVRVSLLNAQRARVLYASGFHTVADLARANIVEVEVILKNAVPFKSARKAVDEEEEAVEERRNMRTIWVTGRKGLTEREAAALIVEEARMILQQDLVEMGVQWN

Take `COc1cnc(C)cc1-c1cc(C)ncc1C(=O)Nc1nc2ncc(-c3ccc(C#N)cc3)nc2s1` [Compound 21, N-(6-(4-cyanophenyl)thiazolo[4,5-b]pyrazin-2-yl)-5′-methoxy-2′,6-dimethyl-[4,4′-bipyridine]-3-carboxamide]: the results for the IC50 in test [1], in test [2] (setting [4]) and in test [3] (setting [5]) were < 0.1 µM, > 10 µM and < 0.2 µM, respectively.
In the same order, the values of `COc1cnc(C)cc1-c1cc(C)ncc1C(=O)Nc1nc2ncc(-c3ccc(C4CC4)cn3)nc2s1` [Compound 24, N-(6-(5-cyclopropylpyridin-2-yl)thiazolo[4,5-b]pyrazin-2-yl)-5′-methoxy-2′,6-dimethyl-[4,4′-bipyridine]-3-carboxamide] are < 0.1 µM, > 10 µM and < 0.2 µM.
In the same order, the values of `COc1cnc(C)cc1-c1cc(C)ncc1C(=O)Nc1nc2ncc(-c3ccc(OC(F)F)cn3)nc2s1` [Compound 25, N-(6-(5-(difluoromethoxy)pyridin-2-yl)thiazolo[4,5-b]pyrazin-2-yl)-5′-methoxy-2′,6-dimethyl-[4,4′-bipyridine]-3-carboxamide] are < 0.1 µM, > 10 µM and < 0.2 µM.
The matching figures for `COc1ccc(Cl)cc1-c1cc(C)ncc1C(=O)Nc1nc2ncc(-c3ccc(C#N)cn3)nc2s1` [Compound 26, 4-(5-chloro-2-methoxyphenyl)-N-(6-(5-cyanopyridin-2-yl)thiazolo[4,5-b]pyrazin-2-yl)-6-methylnicotinamide]: < 0.1 µM, > 10 µM and < 0.2 µM.
In the case of `COc1cnc(C)cc1-c1cc(C)ncc1C(=O)Nc1nc2ncc(-c3ccc(C(F)(F)F)cn3)nc2s1` [Compound 27, 5′-methoxy-2′,6-dimethyl-N-(6-(5-(trifluoromethyl)pyridin-2-yl)thiazolo[4,5-b]pyrazin-2-yl)-[4,4′-bipyridine]-3-carboxamide], the IC50 in test [1] was < 0.1 µM; in test [2] (setting [4]), > 10 µM; in test [3] (setting [5]), < 0.2 µM.
As for `C#Cc1ccccc1-c1cnccc1C(=O)Nc1nc2ncc(-c3ccc(C#N)cc3)nc2s1` [Compound 30, N-(6-(4-cyanophenyl)thiazolo[4,5-b]pyrazin-2-yl)-3-(2-ethynylphenyl)pyridine-4-carboxamide], the IC50 was < 0.1 µM in test [1]; > 10 µM in test [2] (DLD-1, 168 h); < 0.2 µM in test [3] (DLD-1, 168 h).
As for `COc1ccccc1-n1cncc1C(=O)Nc1nc2ncc(-c3ccc(C#N)cc3)nc2s1` [Compound 32, N-(6-(4-cyanophenyl)thiazolo[4,5-b]pyrazin-2-yl)-1-(2-methoxyphenyl)-1H-imidazole-5-carboxamide], the IC50 was < 0.1 µM in test [1], > 10 µM in test [2] (setting [4]) and 0.2 to 0.5 µM in test [3] (setting [5]).
In the same order, the values of `COc1ccc(C#N)cc1-c1cc(C#N)ncc1C(=O)Nc1nc2ncc(-c3ccc(C#N)cc3)nc2s1` [Compound 33, 6-cyano-4-(5-cyano-2-methoxyphenyl)-N-(6-(4-cyanophenyl)thiazolo[4,5-b]pyrazin-2-yl)pyridine-3-carboxamide] are < 0.1 µM, > 10 µM and < 0.2 µM.
For the compound `COc1cccc(F)c1-c1cnccc1C(=O)Nc1nc2ncc(-c3ccc(C#N)cc3)nc2s1` [Compound 34, N-(6-(4-cyanophenyl)thiazolo[4,5-b]pyrazin-2-yl)-3-(2-fluoro-6-methoxyphenyl)pyridine-4-carboxamide], the IC50 in test [1] is < 0.1 µM; in test [2] (setting [4]), > 10 µM; in test [3] (setting [5]), < 0.2 µM.
The matching figures for `C#Cc1ccccc1-c1cc(C)ncc1C(=O)Nc1nc2ncc(-c3ccc(C#N)cc3)nc2s1` [Compound 42, N-(6-(4-cyanophenyl)thiazolo[4,5-b]pyrazin-2-yl)-4-(2-ethynylphenyl)-6-methylpyridine-3-carboxamide]: < 0.1 µM, > 10 µM and 0.2 to 0.5 µM.
The matching figures for `COc1ccc(C#N)cc1-c1cc(C)ncc1C(=O)Nc1nc2ncc(-c3ccc(Cl)cc3)nc2s1` [Compound 46, N-(6-(4-chlorophenyl)thiazolo[4,5-b]pyrazin-2-yl)-4-(5-cyano-2-methoxyphenyl)-6-methylpyridine-3-carboxamide]: < 0.1 µM, > 10 µM and < 0.2 µM.
In the same order, the values of `C#Cc1ccc(F)cc1-c1cc(C)ncc1C(=O)Nc1nc2ncc(-c3ccc(C#N)cc3)nc2s1` [Compound 48, N-(6-(4-cyanophenyl)thiazolo[4,5-b]pyrazin-2-yl)-4-(2-ethynyl-5-fluorophenyl)-6-methylpyridine-3-carboxamide] are < 0.1 µM, > 10 µM and 0.2 to 0.5 µM.
In the case of `COc1ccc(C#N)cc1-c1cc(C)ncc1C(=O)Nc1nc2ncc(-c3ccc(C#N)cc3)nc2s1` [Compound 58, 4-(5-cyano-2-methoxyphenyl)-N-(6-(4-cyanophenyl)thiazolo [4,5-b]pyrazin-2-yl)-6-methylpyridine-3-carboxamide], the IC50 is < 0.1 µM in test [1], > 10 µM in test [2] (setting [4]) and < 0.2 µM in test [3] (setting [5]).
In the same order, the values of `COc1cnc(Cl)cc1-c1cc(C)ncc1C(=O)Nc1nc2ncc(-c3ccc(C#N)cn3)nc2s1` [Compound 61, N-(6-(5-cyanopyridin-2-yl)thiazolo[4,5-b]pyrazin-2-yl)-2′-chloro-5′-methoxy-6-methyl-[4,4-bipyridine]-3-carboxamide] are < 0.1 µM, > 10 µM and < 0.2 µM.
As to `COc1ccc(C#N)cc1-c1cc(C)ncc1C(=O)Nc1nc2ncc(-c3ccc(Cl)cn3)nc2s1` [Compound 62, N-(6-(5-chloropyridin-2-yl)thiazolo[4,5-b]pyrazin-2-yl)-4-(5-cyano-2-methoxyphenyl)-6-methylpyridine-3-carboxamide], the IC50 in test [1] is < 0.1 µM; in test [2] (setting [4]), > 10 µM; in test [3] (setting [5]) it was < 0.2 µM.
The matching figures for `COc1cnc(C#N)cc1-c1cc(C)ncc1C(=O)Nc1nc2ncc(-c3ccc(Cl)cc3)nc2s1` [Compound 63, N-(6-(4-chlorophenyl)thiazolo[4,5-b]pyrazin-2-yl)-2′-cyano-5′-methoxy-6-methyl-[4,4′-bipyridine]-3-carboxamide]: < 0.1 µM, > 10 µM and 0.2 to 0.5 µM.
In the same order, the values of `COc1cnc(C)cc1-c1cc(C)ncc1C(=O)Nc1nc2ncc(-c3ccc(C(C)(C)C#N)cn3)nc2s1` [Compound 68, N-[6-[5-(1-cyano-1-methyl-ethyl)pyridin-2-yl]thiazolo[4,5-b]pyrazin-2-yl]-4-(5-methoxy-2-methylpyridine-4-yl)-6-methyl-pyridine-3-carboxamide] are < 0.1 µM, > 10 µM and < 0.2 µM.
In the same order, the values of `COc1cnc(C2CC2)cc1-c1cc(C)ncc1C(=O)Nc1nc2ncc(-c3ccc(C#N)cc3)nc2s1` [Compound 72, N-(6-(4-cyanophenyl)thiazolo[4,5-b]pyrazin-2-yl)-2′-cyclopropyl-5′-methoxy-6-methyl-[4,4′-bipyridine]-3-carboxamide] are < 0.1 µM, > 10 µM and < 0.2 µM.
For `COc1cnc(C(F)(F)F)cc1-c1cc(C)ncc1C(=O)Nc1nc2ncc(-c3ccc(C#N)cc3)nc2s1` [Compound 73, N-(6-(4-cyanophenyl)thiazolo[4,5-b]pyrazin-2-yl)-5′-methoxy-6-methyl-2′-(trifluoromethyl)-[4,4′-bipyridine]-3-carboxamide], the results for the IC50 in test [1], in test [2] (setting [4]) and in test [3] (setting [5]) were < 0.1 µM, > 10 µM and < 0.2 µM, respectively.
